The values that follow are results of earlier work, collected in US20120157536A1, “COMPOSITION FOR TRANSDERMAL ADMINISTRATION OF NON-STEROIDAL ANTI-FLAMMATORY DRUG” (Polytherapeutics, Inc., priority 2010, published 2012).

Molecules are shown by their SMILES.

With `O=C(O)Cc1ccccc1Nc1c(Cl)cccc1Cl` [Diclofenac, 2-(2,6-dichloro-anilino)-benzeneacetic acid], the “Diclofenac Clearance, Cl” value (Goodman & Gilman) was 4.2 mL/min/kg. The “Minimum effective diclofenac blood concentration” value (Nishihata et al. 1988) is 50 ng/mL.
